Source: paper PMC8388771, “Cationic Peptidomimetic Amphiphiles Having a N-Aryl- or N-Naphthyl-1,2,3-Triazole Core Structure Targeting Clostridioides (Clostridium) difficile: Synthesis, Antibacterial Evaluation, and an In Vivo C. difficile Infection Model” (Antibiotics, 2021)
Values after ≈ are worked out from the molar mass of the structure shown. Read-outs that look alike come from different tables or passages of the source.

How the values were obtained:
[1] = test system: C. difficile strain R20291; set-up: method as in ref 30 (compound 1), 19 (compound 3); details: Table 2 footnote h; ref 30 (compound 1), 19 (compound 3); cited from earlier work
[2] = test system: E. coli ATCC 25922; set-up: method as in ref 30 (1), 31 (2, 4), 19 (3); details: Table 2; ref 30 (1), 31 (2, 4), 19 (3); cited from earlier work
[3] = set-up: method as in PMID 30901686; details: cited from earlier work; for appearance in the solubility assay: Figure 1
[4] = test system: S. pneumoniae ATCC 49619; set-up: method as in ref 30 (1), 31 (2, 4), 19 (3); details: Table 2; ref 30 (1), 31 (2, 4), 19 (3); cited from earlier work
[5] = test system: E. faecalis ATCC 29212; set-up: method as in ref 30 (1), 31 (2, 4), 19 (3); details: Table 2; ref 30 (1), 31 (2, 4), 19 (3); cited from earlier work
[6] = test system: S. aureus ATCC 29213; set-up: method as in ref 30 (1), 31 (2, 4), 19 (3); details: Table 2; ref 30 (1), 31 (2, 4), 19 (3); cited from earlier work
[7] = test system: C. difficile; details: Figure 1; cited from earlier work
[8] = test system: C. difficile strain M7404 (RT027); set-up: method as in ref 30 (compound 1), 19 (compound 3); details: Table 2 footnote g; ref 30 (compound 1), 19 (compound 3); cited from earlier work
[9] = test system: S. aureus NCTC 10442; set-up: method as in ref 31 (2, 4), 19 (3); details: Table 2; MRSA; ref 31 (2, 4), 19 (3); cited from earlier work
[10] = test system: sheep erythrocytes; details: cited from earlier work; for in vitro hemolytic activity: in words
[11] = test system: HEK293 cells; set-up: method as in PMID 30831407; details: Table 2; cited from earlier work
[12] = test system: C. difficile; set-up: method as in PMID 30901686; details: murine CDI model, cited from earlier work
[13] = test system: S. aureus ATCC 43300; set-up: method as in PMID 30831407; details: Table 2; MRSA; cited from earlier work
[14] = test system: C. difficile 132 (RT027); set-up: method as in PMID 30831407; details: Table 2; cited from earlier work
[15] = test system: S. aureus NCTC 10442; assay: Primary MIC assay, S. aureus NCTC 10442 (MRSA); type: cell-based; details: Staphylococcus aureus; Table 1; MRSA; read-out: MIC S. aureus NCTC 10442
In short: (§1)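 Compounds were screened for antimicrobial activity by CLSI-based MIC determination. Anaerobes were tested under the anaerobic CLSI method, aerobes under the aerobic one.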

[16] = test system: human erythrocytes; assay: Hemolysis assay, HC50 determination; type: cell-based
Protocol: Hemolysis assay (human erythrocytes)–HC50 determination. These were performed as described previously.

[17] = test system: E. coli ATCC 25922; assay: Primary MIC assay, E. coli ATCC 25922; type: cell-based; details: Escherichia coli, ATCC25922; Table 1; read-out: MIC E. coli ATCC 25922
[18] = test system: C. albicans ATCC 90028; assay: CO-ADD MIC assay, C. albicans ATCC 90028; type: cell-based
In short: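 Whole-cell growth inhibition (MIC) screening run by CO-ADD. Fluconazole served as antifungal positive control.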

[19] = test system: C. difficile 132 (RT027); assay: Primary MIC assay, C. difficile 132 (RT027); type: cell-based, Clostridioides difficile; details: Clostridioides difficile; Table 1; read-out: MIC C. difficile 132 (RT027)
In short: as §1

[20] = test system: S. aureus ATCC 43300; assay: CO-ADD MIC assay, S. aureus ATCC 43300 (MRSA); type: cell-based; details: Table S1, MRSA, CO-ADD
In short: (§2)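 Secondary screening was run by CO-ADD as whole-cell growth inhibition assays, with MIC as the read-out. Vancomycin, colistin, fluconazole and tamoxifen served as positive controls.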

[21] = test system: E. faecalis ATCC 29212; assay: Primary MIC assay, E. faecalis ATCC 29212; type: cell-based, Enterococcus faecalis; details: Table 1
In short: as §1

[22] = test system: HEK293 cells; assay: Cytotoxicity (CC50) assay by CO-ADD; type: cell-based, human; details: Table 1; cytotoxicity on HEK293 cells, tested at ≤32 µg/mL
[23] = Cytotoxicity (CC50) assay by CO-ADD; type: cell-based, human; details: human, HEK293 cells (ATCC CRL-1573); Table S1; HEK293 cells
[24] = test system: A. baumannii ATCC 19606; assay: CO-ADD MIC assay, A. baumannii ATCC 19606; type: cell-based; details: Acinetobacter baumannii, ATCC19606, Table S1
In short: as §2

[25] = test system: P. aeruginosa ATCC 27853; assay: CO-ADD MIC assay, P. aeruginosa ATCC 27853; type: cell-based; details: Pseudomonas aeruginosa, ATCC27853, Table S1
In short: as §2

[26] = test system: E. coli ATCC 25922; assay: CO-ADD MIC assay, E. coli ATCC 25922; type: cell-based
In short: as §2

[27] = test system: S. pneumoniae ATCC 49619; assay: Primary MIC assay, S. pneumoniae ATCC 49619; type: cell-based, Streptococcus pneumoniae; details: Table 1
In short: as §1

[28] = test system: S. aureus ATCC 29213; assay: Primary MIC assay, S. aureus ATCC 29213; type: cell-based; details: Staphylococcus aureus, ATCC29213; Table 1; read-out: MIC S. aureus ATCC 29213
In short: as §1

[29] = test system: C. difficile ATCC 700057; assay: Primary MIC assay, C. difficile ATCC 700057; type: cell-based, Clostridioides difficile; details: Clostridioides difficile, ATCC700057; Table 1; read-out: MIC C. difficile ATCC 700057
In short: as §1

[30] = test system: K. pneumoniae ATCC 700603; assay: CO-ADD MIC assay, K. pneumoniae ATCC 700603; type: cell-based; details: Klebsiella pneumoniae, ATCC700603, Table S1, multi-drug resistant
In short: as §2

CC(C)CCOC(=O)[C@H](CC(C)C)NC(=O)[C@@H](CCCNC(=N)N)NC(=O)[C@@H](CCCCN)NC(=O)COc1ccc2ccccc2c1-c1c(OCCC(C)C)ccc2ccccc12 [Compound 1]
MIC C. difficile strain R20291 (RT207) [1]: 8 ^h μg/mL | MIC E. coli ATCC 25922 [2]: 16 µg/mL (≈ 18.1 µM) | appearance in the solubility assay [3]: homogenous suspension | SR = solubility ratio relative to that of compound 1 [3]: 1 | MIC S. pneumoniae ATCC 49619 [4]: 2 µg/mL (≈ 2.27 µM) | MIC E. faecalis ATCC 29212 [5]: 2 µg/mL (≈ 2.27 µM) | MIC S. aureus ATCC 29213 [6]: 2 µg/mL (≈ 2.27 µM) | MIC against C. difficile [7]: 8 µg/mL (≈ 9.07 µM) | MIC C. difficile strain M7404 (RT027) [8]: 8 ^g μg/mL

CC(C)CCOc1ccc2ccccc2c1-c1c(OCC(=O)N[C@H](CCCNC(=N)N)Cn2cc(-c3ccccc3)nn2)ccc2ccccc12 [Compound 3]
MIC C. difficile strain R20291 (RT207) [1]: 8 ^h μg/mL | MIC E. coli ATCC 25922 [2]: >128 µg/mL | appearance in the solubility assay [3]: flocculation | SR = solubility ratio relative to that of compound 1 [3]: 1 | solubility during preparation in a 10% DMSO solution ([3]; precipitation): poor solubility | MIC S. aureus NCTC 104422 [9]: 2 µg/mL (≈ 2.92 µM) | MIC S. pneumoniae ATCC 49619 [4]: 8 µg/mL (≈ 11.7 µM) | Haemolysis ([10]; Figure 1): 86% | in vitro hemolytic activity [10]: high | MIC E. faecalis ATCC 29212 [5]: 4 µg/mL (≈ 5.85 µM) | MIC S. aureus ATCC 29213 [6]: 2 µg/mL (≈ 2.92 µM) | MIC against C. difficile [7]: 8 µg/mL (≈ 11.7 µM) | MIC C. difficile strain M7404 (RT027) [8]: 8 ^g μg/mL

CC(C)CCOc1ccccc1-c1ccccc1OCc1cn(C[C@@H](CCCCN)NC(=O)[C@@H](CCCNC(=N)N)n2cc(C3CCCCC3)nn2)nn1 [Compound 4]
MIC E. coli ATCC 25922 [2]: 8 µg/mL (≈ 10.8 µM) | CC50 [11]: 14.2 µg/mL (≈ 19.1 µM) | appearance in the solubility assay [3]: homogenous suspension | SR = solubility ratio relative to that of compound 1 [3]: 4 | survival rate at 24 h ([12]; 10% DMSO group 0%): 60% | survival rate after 48 h [12]: 0% | MIC S. aureus ATCC 43300 [13]: 4 µg/mL (≈ 5.39 µM) | MIC S. aureus NCTC 104422 [9]: 4 µg/mL (≈ 5.39 µM) | MIC S. pneumoniae ATCC 49619 [4]: 4 µg/mL (≈ 5.39 µM) | % hemolysis at 50 µg/mL ([10]; Table 2 HC50 column, footnote i, sheep erythrocytes): 23% ^i | in vitro hemolytic activity [10]: low | MIC E. faecalis ATCC 29212 [5]: 8 µg/mL (≈ 10.8 µM) | MIC S. aureus ATCC 29213 [6]: 8 µg/mL (≈ 10.8 µM) | MIC against C. difficile [7]: 4 µg/mL (≈ 5.39 µM) | MIC C. difficile 132 (RT027) [14]: 8 µg/mL (≈ 10.8 µM)

CC(C)CCc1cn(-c2c(OCC(=O)N[C@H](CCCNC(=N)N)Cn3cc(C4CCCCC4)nn3)ccc3ccccc23)nn1 [Compound 21]
MIC [15]: 8 µg/mL (≈ 13 µM) | HC50 ([16]; Table 1, lysis of human erythrocytes): >32 µg/mL | HC50 ([16]; Table S1, footnote says lysis of sheep erythrocytes): > 32 µg/mL | MIC [17]: 128 µg/mL (≈ 208 µM) | MIC ([18]; Candida albicans, ATCC90028, Table S1): 32 µg/mL (≈ 52 µM) | MIC C. albicans ATCC 90028 ([18]; Table S1): > 32 µg/mL | MIC [19]: > 128 µg/mL | MIC ([20]; Staphylococcus aureus, read-out: MIC S. aureus ATCC 43300): 16 µg/mL (≈ 26 µM) | MIC S. aureus ATCC 43300 [20]: 8 µg/mL (≈ 13 µM) | MIC ([21]; Enterococcus faecalis, ATCC29212, read-out: MIC E. faecalis ATCC 29212): 16 µg/mL (≈ 26 µM) | MIC E. faecalis ATCC 29212 [21]: 4 µg/mL (≈ 6.51 µM) | CC50 [22]: >32 µg/mL | CC50 [23]: > 32 µg/mL | MIC [24]: > 32 µg/mL | MIC [25]: > 32 µg/mL | MIC ([26]; Escherichia coli, ATCC25922, Table S1): 32 µg/mL (≈ 52 µM) | MIC E. coli ATCC 25922 ([26]; Table S1): > 32 µg/mL | MIC ([27]; Streptococcus pneumoniae, ATCC49619, read-out: MIC S. pneumoniae ATCC 49619): 16 µg/mL (≈ 26 µM) | MIC S. pneumoniae ATCC 49619 [27]: 4 µg/mL (≈ 6.51 µM) | MIC [28]: 8 µg/mL (≈ 13 µM) | MIC [29]: 128 µg/mL (≈ 208 µM) | MIC [30]: > 32 µg/mL
